Source: patent US10376553B2, “Pharmaceutical composition for preventing and treating chronic obstructive lung disease containing, as active ingredient, Magnoliae flos extract, fraction, or active fraction thereof” (KOREA RESEARCH INSTITUTE OF BIOSCIENCE AND BIOTECHNOLOGY, priority 2015, dated 2019)

Tests used:
[1] = test system: inflammatory cells in the bronchoalveolar lavage fluid; assay: Inflammatory cells in bronchoalveolar lavage fluid of the COPD mouse model (cigarette smoke + LPS); type: in vivo, C57BL/6N mice; conditions: BALF, vs COPD-induced group
Experimental: Six-week-old male SPF (specific pathogen-free) C57BL/6N mice (22 to 24 g) were supplied by Koatech (Korea). These animals were fed with a sufficient amount of solid feed (no antibiotics, Samyang Feed Co.) and water until the day of the experiment. They were allowed to adapt for 1 week in a light-dark cycle environment at a temperature of 22±2° C. and a humidity of 55±15%, and then subjected to the experiment.
The animal model was exposed to cigarette smoke to induce chronic obstructive pulmonary disease. 3R4F Kentuchy Reference Cigarettes as standard cigarettes for use to generate cigarette smoke were supplied by University of California (USA). The standard cigarettes contain 9.4 mg of tar, 11 mg of total particle matter (TPM), and 12 mg of carbon monoxide per 1 cigarette. The standard cigarettes were used after harmonization for 48 hours to 72 hours at a temperature of 22±1° C. and a humidity of 60±2%. Further, Cigarette Smoke Generator manufactured by Korea BioLink (Korea) was used for exposure to cigarette smoke. Cigarette smoke was inhaled for 1 hour (8 pcs/hour) for 7 days from 1 hour after oral administration of a sample. 10 μg of LPS (lipopolysaccharide) in PBS 50 μL was injected intranasally to each mouse on the 4th day of the experiment after the mouse was anesthetized with zoletyl 1 hour before the exposure to cigarette smoke. The smoking condition was 8 puffs per 1 standard cigarette (volume: 45 mL, duration: 2 seconds, and interval: 1 time/min).
The active fraction of Magnoliae flos (15, 30 mg/kg) and roflumilast (10 mg/kg) as therapeutic substances were dissolved in 0.5% sodium carboxymethyl cellulose and were orally administered 1 hour before the exposure to cigarette smoke.
The experimental groups were divided into (i) normal control (NC) group; (ii) cigarette smoke+LPS exposure group (COPD); (iii) experimental group administered with roflumilast (ROF) (10 mg/kg, p.o) 1 hour before the exposure to cigarette smoke+LPS; and (iv) experimental group administered with the active fraction of Magnoliae flos (15, 30 mg/kg, p.o; Magnoliae flos 15 and Magnoliae flos 30) 1 hour before the exposure to cigarette smoke+LPS. […] Then, they were administered in the same manner as above.
The bronchial alveolar lavage fluid was separated from the animal model treated with the active fraction and the compounds of Magnoliae flos in <Test Example 6-2> above in the following manner, and the number of inflammatory cells was measured.
Specifically, a mouse sonde was inserted into the bronchial tube, a 1 mL syringe containing 0.7 mL of DPBS (Dulbecco's Phosphate-Buffered Saline) was connected thereto, and DPBS was injected into the lung. The injected DPBS was recovered, and this procedure was repeated twice. The bronchoalveolar lavage fluid separated by DPBS was centrifuged at 1,500 rpm for 15 minutes to make a cell pellet. The supernatant was stored frozen at −70° C. for cytokine analysis. Each cell obtained was suspended in DPBS, attached to a slide glass using a cytospin centrifuge, and Diff-Quik stained. The number of inflammatory cells in each sample was counted through microscopic examination, and the inhibition rate was calculated according to the following Equation 3.
Inhibition rate=(Value of COPD-induced group−value of target substance administered group)×100/(Value of COPD-induced group) [Equation 3]

MUC5AC protein = assay: Inhibition of MUC5AC protein production (immunoassay) by the compounds; type: cell-based, human; conditions: for Inhibition rate (%): MUC5AC secretion, TNF-α 20 ng/mL; for production of MUC5AC (in words): vs TNF-α treated group = 100%
Experimental: For immunoassay of the resulting MUC5AC, the supernatant (50 uL) recovered was dispensed on to a 96-well plate and dried in a thermostat set at 50° C. It was washed with PBS supplemented with 1% BSA and reacted with an MUC5AC antibody (abcam, USA) at room temperature for 1 hour. A secondary antibody was dispensed thereto for reaction for 1 hour. It was washed again and then reacted with a 3,3′,5,5′-tetramethylbenzidine peroxide solution for 20 minutes. After the reaction was stopped with a sulfuric acid solution, the degree of color development was measured at 450 nm.
As a result, as shown in the following Table 6, the amount of MUCSAC secretion increased in the group treated with TNF-α.

reactive oxygen species = assay: Production of active oxygen species in BALF of the COPD model (DCF-DA); type: in vivo, C57BL/6N mice; conditions: for Active oxygen inhibition rate (%) / production of active oxygen species (in words): vs COPD-induced group; for production of active oxygen species (in words): 15 and 30 mg/kg
Experimental: Production of active oxygen species in the bronchoalveolar lavage fluid obtained in <Test Example 6-3> above was confirmed by the following method.
Specifically, the separated BALF (200 μL) was treated to the final concentration of 20 μM of DCF-DA (dihydrodichlorofluorescein diacetate, Sigma-Aldrich, USA), followed by culturing for 30 minutes and measurement using Fluorescence (Molecular Device, USA). The inhibition rate was calculated by Equation 3 above.

H292 cells = assay: Cytotoxicity (CCK-8 cell viability) of the compounds of Magnoliae flos in H292 cells; type: cell-based, human; conditions: 24 h, vs 0.2% DMSO control = 100%
Experimental: Then, 10 μl of the CCK-8 solution (Dojindo Laboratories, Japan) was mixed with 90 μl of the medium, and 100 μl thereof was added per well. After incubation for a minimum of 30 minutes to a maximum of 4 hours, the absorbance was measured at 570 nm. The cell viability was calculated according to the following Equation 2 with a negative control group treated with 0.2% DMSO as a reference of 100%.
Cell viability=(Compound treated OD 570 nm value)×100/(Negative control group OD 570 nm value) [Equation 2]

IL-6 = IL-6 level in BALF of the COPD model (ELISA); type: in vivo, C57BL/6N mice; conditions: vs COPD-induced group; for IL-6 inhibition rate (%): BALF
Experimental: (§1) Cytokines were measured in the cell supernatant obtained in <Test Example 6-3> above by the following method. Specifically, the levels of IL-6 (R & D System, USA) and TNF-α (BD Bioscience, USA) in the separated BALF were measured by enzyme-linked immuno-sorbent assay (ELISA). Each cytokine analysis was carried out according to the manufacturer's test method.

TNF-α = TNF-α level in BALF of the COPD model (ELISA); type: in vivo, C57BL/6N mice; conditions: vs COPD-induced group; for TNF-α inhibition rate (%): BALF
Experimental: as §1

MUC5AC promoters = assay: MUC5AC promoter luciferase reporter assay in H292 cells; type: cell-based, human; conditions: Table 7, MUC5AC promoter luciferase reporter, 10 μM, TNF-α 20 ng/mL
From the text: The degree of activation of luciferase was confirmed using a One-glow Luciferase Assay System (Promega).
As a result, as shown in the following Table 7, the activity of the MUC5AC promoters increased in the group treated with TNF-α.

Row | SMILES | Inhibition rate of inflammatory cell infiltration (%) Macrophage ([1]; 15 mg/kg p.o.) [%] | Inhibition rate of inflammatory cell infiltration (%) Neutrophil ([1]; 15 mg/kg p.o.) [%] | Inhibition rate of inflammatory cell infiltration (%) Total inflammatory cells ([1]; 15 mg/kg p.o.) [%] | Inhibition rate of inflammatory cell infiltration (%) Macrophage ([1]; 30 mg/kg p.o.) [%] | Inhibition rate of inflammatory cell infiltration (%) Neutrophil ([1]; 30 mg/kg p.o.) [%] | Inhibition rate of inflammatory cell infiltration (%) Total inflammatory cells ([1]; 30 mg/kg p.o.) [%] | increase in inflammatory cells (in words) [1] | Inhibition rate (%) (MUC5AC protein; 2.5 μM) | Inhibition rate (%) (MUC5AC protein; 5 μM) | Inhibition rate (%) (MUC5AC protein; 10 μM) | Active oxygen inhibition rate (%) (reactive oxygen species; 15 mg/kg p.o.) | Active oxygen inhibition rate (%) (reactive oxygen species; 30 mg/kg p.o.) | production of active oxygen species (in words) (reactive oxygen species) | IL-6 inhibition rate (%) (IL-6; 15 mg/kg p.o.) | IL-6 inhibition rate (%) (IL-6; 30 mg/kg p.o.) | IL-6 in the bronchoalveolar lavage fluid (in words) (IL-6) | TNF-α inhibition rate (%) (TNF-α; 15 mg/kg p.o.) | TNF-α inhibition rate (%) (TNF-α; 30 mg/kg p.o.) | TNF-α secretion in the bronchoalveolar lavage fluid (in words) (TNF-α) | rate of inhibiting reactive oxygen compared with ROF drug control group (in words) (reactive oxygen species; 15 mg/kg) | also measured
1 | COc1ccc([C@H]2OC[C@H]3[C@@H]2CO[C@@H]3c2ccc(OC)c(OC)c2)cc1OC [Compound S1, dimethylpinoresinol] | 12.8 ± 10.4 | 45.9 ± 3.4 | 42.2 ± 2.5 | 40.0 ± 5.4 | 54.5 ± 3.4 | 54.3 ± 3.5 | effectively inhibited | 8.64 | 26.36 | 30.2 | 17.9 ± 5.1 | 34.7 ± 3.2 | relatively higher inhibition rates in a manner depending on concentration | 56.2 ± 6.6 | 67.6 ± 6.6 | concentration-dependent decrease | 25.0 ± 7.8 | 38.0 ± 4.1 | concentration-dependent inhibition |  | production of MUC5AC (in words) (MUC5AC protein): inhibited in a manner depending on the concentrations; production of MUC5AC (in words) (MUC5AC protein; listed as Formula 2): inhibited the production of MUC5AC in a manner depending on concentration; Viability of H292 cells (%, average ± deviation) (H292 cells; 2.5 μM): 121.27 ± 2.04%; Viability of H292 cells (%, average ± deviation) (H292 cells; 5 μM): 121.61 ± 3.75%; Viability of H292 cells (%, average ± deviation) (H292 cells; 10 μM): 118.76 ± 1.96%; Inhibition rate (%) (MUC5AC promoters): 55.74%
2 | COc1ccc([C@H]2OC[C@H]3[C@@H]2CO[C@@H]3c2ccc3c(c2)OCO3)cc1OC [Compound S5, dimethoxyaschantin] | 28.3 ± 7.2 | 44.2 ± 4.1 | 33.0 ± 4.4 | 37.1 ± 7.1 | 53.2 ± 5.4 | 43.2 ± 5.4 |  | 13.93 | 10.12 | 16.43 | 31.3 ± 2.5 | 39.7 ± 3.5 | relatively higher inhibition rates in a manner depending on concentration | 36.1 ± 5.5 | 48.8 ± 4.4 | concentration-dependent decrease | 32.9 ± 4.8 | 39.1 ± 1.9 | concentration-dependent inhibition |  | 
3 | COc1cc([C@H]2OC[C@H]3[C@@H]2CO[C@@H]3c2ccc3c(c2)OCO3)cc(OC)c1OC [Compound S6, aschantin] | 37.8 ± 5.3 | 50.7 ± 5.9 | 42.8 ± 2.4 | 26.0 ± 5.6 | 66.3 ± 5.9 | 43.7 ± 4.7 | effectively inhibited | 0.15 | 4.19 | 1.2 | 30.6 ± 7.6 | 33.5 ± 6.9 | relatively higher inhibition rates in a manner depending on concentration | 59.3 ± 7.2 | 62.9 ± 6.0 | concentration-dependent decrease | 39.8 ± 10.2 | 47.8 ± 4.7 | concentration-dependent inhibition | higher rates of inhibiting reactive oxygen than that of the drug control group treated with ROF | rate of inhibiting reactive oxygen compared with ROF drug control group (in words) (reactive oxygen species; 30 mg/kg): higher rates of inhibiting reactive oxygen than that of the drug control group treated with ROF
4 | COc1ccc([C@@H]2OC[C@H]3[C@@H]2CO[C@@H]3c2ccc3c(c2)OCO3)cc1OC [Compound S7, fargesin] | 37.1 ± 2.8 | 51.7 ± 6.3 | 44.1 ± 3.7 | 34.8 ± 6.1 | 38.2 ± 5.4 | 34.1 ± 6.1 | effectively inhibited | 0.79 | 1.69 | 11.05 | 47.5 ± 5.2 | 39.6 ± 6.9 | higher inhibition rate in the low dose groups | 50.8 ± 17.0 | 31.4 ± 9.6 |  | 49.1 ± 2.6 | 34.1 ± 7.1 |  | higher rates of inhibiting reactive oxygen than that of the drug control group treated with ROF | rate of inhibiting reactive oxygen compared with ROF drug control group (in words) (reactive oxygen species; 30 mg/kg): higher rates of inhibiting reactive oxygen than that of the drug control group treated with ROF
